Laboratory results: patent publication US6096930A, “Herbicidal cyclohexane-1,3-dione derivatives and their preparation process” (Korea Research Institute of Chemical Technology, priority 1994, dated 2000)

Experiments:
Test in all cases: Herbicidal activity, upland test, post-emergence
Format in all cases: in vivo
ECHOR = tested on: ECHOR
Procedure, shortened: (§1)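 Test plants grown in sterilized sandy loam in pots in a greenhouse for 9~14 days, then foliage sprayed with compound in acetone/water with a little Tween 20. Kept one day, then watered regularly for 14 to 21 days; control scored visually as percent, 0 no effect to 100 complete kill.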

SORBI = tested on: SORBI
Procedure, shortened: as §1

ZEAMX = tested on: ZEAMX
Procedure, shortened: as §1

DIGSA = tested on: DIGSA
Procedure, shortened: as §1

GLXMX = tested on: GLXMX
Procedure, shortened: as §1

TRZAW = tested on: TRZAW
Procedure, shortened: as §1

AESIN = tested on: AESIN
Procedure, shortened: as §1

CCCC(=NOC)C1=C(O)CC(c2c(C)c(C)c3c(c2C)CC(C)(C)C3)CC1=O (stereo not shown) [Compound 6]
Herbicidal activity, ECHOR (ECHOR; 0.016 kg/ha): 70 % inhibition
Herbicidal activity, ECHOR (ECHOR; 0.063 kg/ha): 100 % inhibition
Herbicidal activity, ECHOR (ECHOR; 1.000 kg/ha): 100 % inhibition
Herbicidal activity, ECHOR (ECHOR; 1.250 kg/ha): 100 % inhibition
Herbicidal activity, SORBI (SORBI; 0.016 kg/ha): 0 % inhibition
Herbicidal activity, SORBI (SORBI; 0.063 kg/ha): 30 % inhibition
Herbicidal activity, SORBI (SORBI; 1.000 kg/ha): 70 % inhibition
Herbicidal activity, SORBI (SORBI; 1.250 kg/ha): 50 % inhibition
Herbicidal activity, ZEAMX (ZEAMX; 0.016 kg/ha): 0 % inhibition
Herbicidal activity, ZEAMX (ZEAMX; 0.063 kg/ha): 60 % inhibition
Herbicidal activity, ZEAMX (ZEAMX; 1.000 kg/ha): 100 % inhibition
Herbicidal activity, ZEAMX (ZEAMX; 1.250 kg/ha): 100 % inhibition
Herbicidal activity, DIGSA (DIGSA; 0.016 kg/ha): 60 % inhibition
Herbicidal activity, DIGSA (DIGSA; 0.063 kg/ha): 100 % inhibition
Herbicidal activity, DIGSA (DIGSA; 1.000 kg/ha): 100 % inhibition
Herbicidal activity, DIGSA (DIGSA; 1.250 kg/ha): 100 % inhibition
Herbicidal activity, GLXMX (GLXMX; 0.016 kg/ha): 0 % inhibition
Herbicidal activity, GLXMX (GLXMX; 0.063 kg/ha): 0 % inhibition
Herbicidal activity, GLXMX (GLXMX; 1.000 kg/ha): 60 % inhibition
Herbicidal activity, GLXMX (GLXMX; 1.250 kg/ha): 20 % inhibition
Herbicidal activity, TRZAW (TRZAW; 0.016 kg/ha): 0 % inhibition
Herbicidal activity, TRZAW (TRZAW; 0.063 kg/ha): 30 % inhibition
Herbicidal activity, TRZAW (TRZAW; 1.000 kg/ha): 100 % inhibition
Herbicidal activity, TRZAW (TRZAW; 1.250 kg/ha): 50 % inhibition
Herbicidal activity, AESIN (AESIN; 0.016 kg/ha): 0 % inhibition
Herbicidal activity, AESIN (AESIN; 0.063 kg/ha): 0 % inhibition
Herbicidal activity, AESIN (AESIN; 1.000 kg/ha): 20 % inhibition
Herbicidal activity, AESIN (AESIN; 1.250 kg/ha): 0 % inhibition

CCC(=NOC)C1=C(O)CC(c2c(C)c(C)c3c(c2C)CC(C)(C)C3)CC1=O (stereo not shown) [Compound 1]
Herbicidal activity, ECHOR (ECHOR; 0.016 kg/ha): 60 % inhibition
Herbicidal activity, ECHOR (ECHOR; 0.063 kg/ha): 100 % inhibition
Herbicidal activity, ECHOR (ECHOR; 1.000 kg/ha): 100 % inhibition
Herbicidal activity, ECHOR (ECHOR; 1.250 kg/ha): 100 % inhibition
Herbicidal activity, SORBI (SORBI; 0.016 kg/ha): 0 % inhibition
Herbicidal activity, SORBI (SORBI; 0.063 kg/ha): 20 % inhibition
Herbicidal activity, SORBI (SORBI; 1.000 kg/ha): 100 % inhibition
Herbicidal activity, SORBI (SORBI; 1.250 kg/ha): 60 % inhibition
Herbicidal activity, ZEAMX (ZEAMX; 0.016 kg/ha): 0 % inhibition
Herbicidal activity, ZEAMX (ZEAMX; 0.063 kg/ha): 30 % inhibition
Herbicidal activity, ZEAMX (ZEAMX; 1.000 kg/ha): 100 % inhibition
Herbicidal activity, ZEAMX (ZEAMX; 1.250 kg/ha): 100 % inhibition
Herbicidal activity, DIGSA (DIGSA; 0.016 kg/ha): 70 % inhibition
Herbicidal activity, DIGSA (DIGSA; 0.063 kg/ha): 100 % inhibition
Herbicidal activity, DIGSA (DIGSA; 1.000 kg/ha): 100 % inhibition
Herbicidal activity, DIGSA (DIGSA; 1.250 kg/ha): 100 % inhibition
Herbicidal activity, GLXMX (GLXMX; 0.016 kg/ha): 0 % inhibition
Herbicidal activity, GLXMX (GLXMX; 0.063 kg/ha): 0 % inhibition
Herbicidal activity, GLXMX (GLXMX; 1.000 kg/ha): 60 % inhibition
Herbicidal activity, GLXMX (GLXMX; 1.250 kg/ha): 20 % inhibition
Herbicidal activity, TRZAW (TRZAW; 0.016 kg/ha): 30 % inhibition
Herbicidal activity, TRZAW (TRZAW; 0.063 kg/ha): 40 % inhibition
Herbicidal activity, TRZAW (TRZAW; 1.000 kg/ha): 100 % inhibition
Herbicidal activity, TRZAW (TRZAW; 1.250 kg/ha): 60 % inhibition
Herbicidal activity, AESIN (AESIN; 0.016 kg/ha): 0 % inhibition
Herbicidal activity, AESIN (AESIN; 0.063 kg/ha): 0 % inhibition
Herbicidal activity, AESIN (AESIN; 1.000 kg/ha): 0 % inhibition
Herbicidal activity, AESIN (AESIN; 1.250 kg/ha): 0 % inhibition

CCON=C(CC)C1=C(O)CC(c2c(C)c(C)c3c(c2C)CC(C)(C)C3)CC1=O (stereo not shown) [Compound 2]
Herbicidal activity, ECHOR (ECHOR; 0.004 kg/ha): 80 % inhibition
Herbicidal activity, ECHOR (ECHOR; 0.016 kg/ha): 90 % inhibition
Herbicidal activity, ECHOR (ECHOR; 0.063 kg/ha): 100 % inhibition
Herbicidal activity, ECHOR (ECHOR; 1.000 kg/ha): 100 % inhibition
Herbicidal activity, ECHOR (ECHOR; 1.250 kg/ha): 100 % inhibition
Herbicidal activity, SORBI (SORBI; 0.004 kg/ha): 0 % inhibition
Herbicidal activity, SORBI (SORBI; 0.016 kg/ha): 0 % inhibition
Herbicidal activity, SORBI (SORBI; 0.063 kg/ha): 60 % inhibition
Herbicidal activity, SORBI (SORBI; 1.000 kg/ha): 100 % inhibition
Herbicidal activity, SORBI (SORBI; 1.250 kg/ha): 100 % inhibition
Herbicidal activity, ZEAMX (ZEAMX; 0.004 kg/ha): 0 % inhibition
Herbicidal activity, ZEAMX (ZEAMX; 0.016 kg/ha): 40 % inhibition
Herbicidal activity, ZEAMX (ZEAMX; 0.063 kg/ha): 100 % inhibition
Herbicidal activity, ZEAMX (ZEAMX; 1.000 kg/ha): 100 % inhibition
Herbicidal activity, ZEAMX (ZEAMX; 1.250 kg/ha): 100 % inhibition
Herbicidal activity, DIGSA (DIGSA; 0.004 kg/ha): 100 % inhibition
Herbicidal activity, DIGSA (DIGSA; 0.016 kg/ha): 100 % inhibition
Herbicidal activity, DIGSA (DIGSA; 0.063 kg/ha): 100 % inhibition
Herbicidal activity, DIGSA (DIGSA; 1.000 kg/ha): 100 % inhibition
Herbicidal activity, DIGSA (DIGSA; 1.250 kg/ha): 100 % inhibition
Herbicidal activity, GLXMX (GLXMX; 0.004 kg/ha): 0 % inhibition
Herbicidal activity, GLXMX (GLXMX; 0.016 kg/ha): 0 % inhibition
Herbicidal activity, GLXMX (GLXMX; 0.063 kg/ha): 30 % inhibition
Herbicidal activity, GLXMX (GLXMX; 1.000 kg/ha): 60 % inhibition
Herbicidal activity, GLXMX (GLXMX; 1.250 kg/ha): 40 % inhibition
Herbicidal activity, TRZAW (TRZAW; 0.004 kg/ha): 0 % inhibition
Herbicidal activity, TRZAW (TRZAW; 0.016 kg/ha): 0 % inhibition
Herbicidal activity, TRZAW (TRZAW; 0.063 kg/ha): 40 % inhibition
Herbicidal activity, TRZAW (TRZAW; 1.000 kg/ha): 100 % inhibition
Herbicidal activity, TRZAW (TRZAW; 1.250 kg/ha): 100 % inhibition
Herbicidal activity, AESIN (AESIN; 0.004 kg/ha): 0 % inhibition
Herbicidal activity, AESIN (AESIN; 0.016 kg/ha): 0 % inhibition
Herbicidal activity, AESIN (AESIN; 0.063 kg/ha): 0 % inhibition
Herbicidal activity, AESIN (AESIN; 1.000 kg/ha): 0 % inhibition
Herbicidal activity, AESIN (AESIN; 1.250 kg/ha): 0 % inhibition
